Results as given in ChEMBL document CHEMBL5465560, “Selectivity Literature for EUbOPEN Chemogenomic Library” (2024).
Each block holds one molecule with its values, some of them ahead of it.

Legend:
[1] = molecular target: DNA (cytosine-5)-methyltransferase 3B (Homo sapiens) (UniProt Q9UBC3); experiment: Selectivity interaction (Methyltransferase screen (radiometric assays, panel of 8 PRMTs, 21 protein lysine methyltransferases, 3 DNA methyltransferases, and one RNA methyltransferase)) EUB0000272b DNMT3B
[2] = molecular target: Maternal embryonic leucine zipper kinase (Homo sapiens) (UniProt Q14680); experiment: Selectivity interaction (Kinase panel (DSF assay)) EUB0001559a MELK
Maternal embryonic leucine zipper kinase (Homo sapiens), sequence (Q14680 whole entry, looked up): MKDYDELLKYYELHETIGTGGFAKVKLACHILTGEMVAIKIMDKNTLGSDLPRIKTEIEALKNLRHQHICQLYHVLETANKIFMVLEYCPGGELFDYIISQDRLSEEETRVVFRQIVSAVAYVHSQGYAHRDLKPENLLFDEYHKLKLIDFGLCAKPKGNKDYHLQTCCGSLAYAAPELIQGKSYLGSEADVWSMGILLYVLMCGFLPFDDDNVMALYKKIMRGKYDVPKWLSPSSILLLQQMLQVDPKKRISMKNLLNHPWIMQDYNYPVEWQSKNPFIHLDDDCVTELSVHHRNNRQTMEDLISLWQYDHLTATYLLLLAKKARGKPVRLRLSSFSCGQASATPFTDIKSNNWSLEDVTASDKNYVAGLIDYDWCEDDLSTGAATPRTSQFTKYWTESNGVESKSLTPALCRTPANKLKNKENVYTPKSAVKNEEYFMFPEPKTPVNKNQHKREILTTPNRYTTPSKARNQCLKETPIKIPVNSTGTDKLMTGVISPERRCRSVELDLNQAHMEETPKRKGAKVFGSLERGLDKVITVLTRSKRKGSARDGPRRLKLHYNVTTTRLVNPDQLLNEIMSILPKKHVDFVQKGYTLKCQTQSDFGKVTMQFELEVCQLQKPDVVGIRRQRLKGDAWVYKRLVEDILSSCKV

[3] = molecular target: T1, EKC/KEOPS complex subunit TP53RK (Homo sapiens) (UniProt Q96S44); experiment: Selectivity interaction (Kinase panel (KiNativ target engagement assay in Jurkat cells)) EUB0001635a TP53RK; assay type: cell-based; details: Selectivity number of off-targets 0.0, Selectivity number of targets 233.0, Source Knowledge https://www.sciencedirect.com/science/article/pii/S2451945619300674?via%3Dihub, at 1 µM
T1 sequence (whole entry): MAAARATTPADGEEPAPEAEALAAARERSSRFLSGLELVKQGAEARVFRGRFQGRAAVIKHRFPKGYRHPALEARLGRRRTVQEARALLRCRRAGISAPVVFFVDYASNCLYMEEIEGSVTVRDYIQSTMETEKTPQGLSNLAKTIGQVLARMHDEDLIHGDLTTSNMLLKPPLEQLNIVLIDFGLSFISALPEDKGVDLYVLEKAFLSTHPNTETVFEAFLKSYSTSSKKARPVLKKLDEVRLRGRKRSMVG

[4] = molecular target: T2, Serine/threonine-protein kinase D2 (Homo sapiens) (UniProt Q9BZL6); experiment: Selectivity interaction (ActivX KiNativ screen (kinase selectivity in THP-1 cell lysates)) EUB0000639a PRKD2; assay type: subcellular; details: lysate, at 5 µM
T2 sequence (whole entry): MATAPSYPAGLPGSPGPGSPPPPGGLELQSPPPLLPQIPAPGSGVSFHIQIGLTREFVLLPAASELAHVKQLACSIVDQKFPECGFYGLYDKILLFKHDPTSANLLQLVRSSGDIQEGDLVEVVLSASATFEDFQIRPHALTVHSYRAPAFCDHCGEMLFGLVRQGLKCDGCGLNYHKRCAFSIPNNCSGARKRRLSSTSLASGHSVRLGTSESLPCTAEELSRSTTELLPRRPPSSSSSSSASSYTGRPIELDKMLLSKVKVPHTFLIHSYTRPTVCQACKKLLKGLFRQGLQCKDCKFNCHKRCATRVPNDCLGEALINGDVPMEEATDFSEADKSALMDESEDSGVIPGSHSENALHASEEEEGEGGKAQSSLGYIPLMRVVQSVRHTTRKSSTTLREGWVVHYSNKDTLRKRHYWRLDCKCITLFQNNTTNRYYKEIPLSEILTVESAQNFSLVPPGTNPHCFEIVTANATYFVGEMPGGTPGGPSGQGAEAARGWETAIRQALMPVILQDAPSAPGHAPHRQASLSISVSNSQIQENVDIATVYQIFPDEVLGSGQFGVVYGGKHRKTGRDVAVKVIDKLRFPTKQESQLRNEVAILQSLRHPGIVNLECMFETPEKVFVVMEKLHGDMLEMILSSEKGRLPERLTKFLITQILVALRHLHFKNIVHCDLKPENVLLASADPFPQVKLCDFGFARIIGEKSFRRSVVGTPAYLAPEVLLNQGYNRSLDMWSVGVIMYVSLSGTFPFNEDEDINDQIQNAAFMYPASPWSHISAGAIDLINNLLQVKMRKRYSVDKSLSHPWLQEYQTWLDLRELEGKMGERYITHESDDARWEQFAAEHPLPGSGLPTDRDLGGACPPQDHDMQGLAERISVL

[5] = molecular target: Calcium/calmodulin-dependent protein kinase type II subunit beta (Homo sapiens) (UniProt Q13554); experiment: Selectivity interaction (ActivX KiNativ screen (kinase selectivity in THP-1 cell lysates)) EUB0000639a CAMK2B; assay type: subcellular; details: lysate, at 0.01 µM
Calcium/calmodulin-dependent protein kinase type II subunit beta (Homo sapiens), sequence (Q13554 whole entry): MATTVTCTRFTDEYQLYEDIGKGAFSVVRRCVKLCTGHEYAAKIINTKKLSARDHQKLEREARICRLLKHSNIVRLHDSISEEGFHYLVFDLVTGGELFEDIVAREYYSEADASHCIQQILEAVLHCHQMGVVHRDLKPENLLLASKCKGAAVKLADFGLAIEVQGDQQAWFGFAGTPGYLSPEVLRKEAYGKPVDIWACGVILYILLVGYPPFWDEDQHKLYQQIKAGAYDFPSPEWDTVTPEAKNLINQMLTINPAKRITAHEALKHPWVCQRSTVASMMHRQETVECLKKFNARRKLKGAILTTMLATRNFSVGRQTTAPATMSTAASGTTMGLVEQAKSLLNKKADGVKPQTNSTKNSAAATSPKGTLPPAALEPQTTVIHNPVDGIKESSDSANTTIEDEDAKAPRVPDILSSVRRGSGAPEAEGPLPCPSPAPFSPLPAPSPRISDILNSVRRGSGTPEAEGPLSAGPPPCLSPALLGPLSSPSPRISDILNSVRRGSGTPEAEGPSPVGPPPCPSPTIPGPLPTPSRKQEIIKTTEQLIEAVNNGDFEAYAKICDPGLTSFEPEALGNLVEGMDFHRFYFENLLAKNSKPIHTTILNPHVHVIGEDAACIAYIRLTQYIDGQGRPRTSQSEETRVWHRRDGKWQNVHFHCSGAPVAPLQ

[6] = molecular target: T3, 5-hydroxytryptamine receptor 2C (Homo sapiens) (UniProt P28335); experiment: Selectivity interaction (Panel of kinases, GPCRs, ion channels and transporters (enzymatic assay)) EUB0000266bCl HTR2C
T3 sequence (whole entry): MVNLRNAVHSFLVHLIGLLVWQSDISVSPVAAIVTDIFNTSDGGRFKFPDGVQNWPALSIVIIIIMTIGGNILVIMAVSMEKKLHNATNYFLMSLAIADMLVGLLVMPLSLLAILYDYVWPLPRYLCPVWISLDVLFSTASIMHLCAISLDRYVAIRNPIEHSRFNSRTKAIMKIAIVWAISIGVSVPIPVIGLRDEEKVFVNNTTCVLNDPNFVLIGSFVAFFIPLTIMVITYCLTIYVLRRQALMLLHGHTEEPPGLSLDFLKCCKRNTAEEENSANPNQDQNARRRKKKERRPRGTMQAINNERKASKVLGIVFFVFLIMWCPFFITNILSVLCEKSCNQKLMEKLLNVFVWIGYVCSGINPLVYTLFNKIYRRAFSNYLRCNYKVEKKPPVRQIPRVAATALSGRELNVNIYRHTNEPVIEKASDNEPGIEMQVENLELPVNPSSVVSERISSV

- % of activity ([1]; at 1 µM): 97.3%
- % of activity ([1]; at 10 µM): 102%
SMILES: Cc1cc(C)cc([C@H]2c3cc(C)ccc3NC(=O)CN2C(=O)c2ccc(Br)s2)c1

- dTM [2]: -0.3 K
SMILES: CN(C(=O)c1cnn2cccnc12)c1cc2c(cc1N1CCOCC1)C(=O)N(C[C@@H](F)C(C)(C)O)C2

SMILES: C=CC(=O)Nc1ccc(C(=O)Nc2[nH]nc3c2CN(C(=O)N[C@H](CN(C)C)c2ccccc2)C3(C)C)cc1
- % of engagement [3]: -14.9%

- % of inhibition [4]: 8.9%
- % of inhibition [5]: 1.4%
SMILES: CC[C@@H]1[C@H](F)C(=O)N[C@@H]1COc1nccc2cc(C(N)=O)c(OC)cc12 [ZIMLOVISERTIB]

- pXC50 [6]: 4.7 M
SMILES: CCn1c(-c2nc3cc(C(=O)N4CCCC(N)C4)ccc3n2C)cc2ccccc21 (configuration not stated)
